“And” between values parts separate entries of the source, which are not always exact repeats. Equal entries are not always repeated. Where two headings read alike, the source gives them in different places.
Legend:
[1] = tested on: S. cerevisiae strain ADΔΔ (native ScCYP51); experiment: MIC80 susceptibility, host strain ADΔΔ; assay type: cell-based; conditions: Saccharomyces cerevisiae, Table 2, SD pH 6.8, 48 h, 30 °C
Protocol: (§1) The susceptibilities of S. cerevisiae strains to antifungal drugs were determined as minimum growth inhibitory concentration (MIC) values in 200 μL SD pH 6.8 [24]. Serial 2-fold dilutions of 100 μL of azole or control drugs in SD pH 6.8 were prepared in a 96-well microtiter plate. A portion of a 2 mL SD pH 6.8 overnight culture of the test strain was inoculated into 3 mL fresh SD pH 6.8 and incubated for 4 to 6 h at 30 °C to generate logarithmic-phase cells. These cells were then diluted with fresh SD pH 6.8 to OD600nm = 0.01 (3 × 10^4 CFU), and 100 μL of this cell suspension was added to microtiter plate wells. Cell growth after 48 h incubation at 30 °C with shaking at 200 rpm was determined at 600 nm using a BioTek™ Synergy™ 2 multi-Mode microplate reader controlled using Gen5™ Data Analysis Software version 3.16.10 (BioTek Instruments, Winooski, VT, USA). MIC80 values (80% growth inhibition in the presence of the test drug compared with the untreated control) for each yeast construct were determined as technical triplicates repeated three times for three separate clones.

[2] = tested on: S. cerevisiae strain AR (AfCyp51A-6×His, AfCprA2-6×His); experiment: MIC80 susceptibility, strain AR; assay type: cell-based, Saccharomyces cerevisiae; conditions: Saccharomyces cerevisiae; Table 2; strain AR; SD pH 6.8, 48 h, 30 °C; ± SD; read-out: MIC80
Protocol: as §1

[3] = tested on: S. cerevisiae strain ARE (AfCyp51A-6×His, AfCprA2, AfErg6-FLAG); experiment: MIC80 susceptibility, strain ARE; assay type: cell-based, Saccharomyces cerevisiae
Protocol: as §1

[4] = tested on: S. cerevisiae strain ARE T289A (AfCyp51A-6×His T289A, AfCprA2, AfErg6-FLAG); experiment: MIC80 susceptibility, strain T289A; assay type: cell-based, Saccharomyces cerevisiae; conditions: for MIC80: ± SD
Protocol: as §1

[5] = tested on: S. cerevisiae strain ARE I301T (AfCyp51A-6×His I301T, AfCprA2, AfErg6-FLAG); experiment: MIC80 susceptibility, strain I301T; assay type: cell-based, Saccharomyces cerevisiae; conditions: for MIC80: ± SD
Protocol: as §1

[6] = tested on: S. cerevisiae strain BR (AfCyp51B-6×His, AfCprA2-6×His); experiment: MIC80 susceptibility, strain BR; assay type: cell-based; conditions: Saccharomyces cerevisiae; Table 2; strain BR; SD pH 6.8, 48 h, 30 °C; ± SD; read-out: MIC80
Protocol: as §1

AfCYP51A-6×His = AfCYP51A-6×His (Aspergillus fumigatus, UniProt Q4WNT5); experiment: Type II binding of azole drugs (difference spectra); conditions: for λpeak (type II difference spectrum) / λtrough (type II difference spectrum) / ΔAmax (type II binding) / Hill Number / Kd: AfCYP51A; for λpeak (type II difference spectrum) / λtrough (type II difference spectrum) / ΔAmax (type II binding) / Kd: 1 μM enzyme; for ΔAmax (type II binding) / Kd: Hill equation
Protocol: (§2) The concentration of AfCYP51A and AfCYP51B, purified using Ni-NTA affinity chromatography and used for the spectrophotometric type I and type II binding assays, was calculated using an extinction co-efficient of λ417nm = 117 mM^−1 cm^−1 applied to the absolute absorption spectrum of the preparations. In addition, the amount of “active” cytochrome P450 enzyme was determined using the carbon monoxide (CO) binding spectra of these preparations.
(§3) Type II binding difference spectra were obtained using 1 μM of affinity-purified CYP51 enzymes. VCZ, PCZ, VT-1161, DCZ, and MCF working solutions were prepared in DMSO, while FLC was prepared in Milli-Q water. Azole drugs were added to the sample cuvette, and corresponding amounts of DMSO or Milli-Q water were added to the reference cuvette. Drug binding curves were plotted using the difference spectrum peak and trough detected in the range of 410–425 nm. Dissociation constants (Kd) were determined by nonlinear regression (Levenberg–Marquardt algorithm) of the difference in absorbance between the peak and trough against the azole concentration using a rearrangement of the Morrison equation or the Hill equation [7]. GraphPad Prism 9.2.0 software was used to identify the best fit for the data.

AfCYP51B-6×His = target: T1, AfCYP51B-6×His (Aspergillus fumigatus, UniProt E9QY26); experiment: as above; conditions: for λpeak (type II difference spectrum) / λtrough (type II difference spectrum) / ΔAmax (type II binding) / Kd: 1 μM enzyme; for ΔAmax (type II binding) / Kd: Hill equation; for Hill Number / Kd: type II binding
T1 sequence (E9QY26 1-524): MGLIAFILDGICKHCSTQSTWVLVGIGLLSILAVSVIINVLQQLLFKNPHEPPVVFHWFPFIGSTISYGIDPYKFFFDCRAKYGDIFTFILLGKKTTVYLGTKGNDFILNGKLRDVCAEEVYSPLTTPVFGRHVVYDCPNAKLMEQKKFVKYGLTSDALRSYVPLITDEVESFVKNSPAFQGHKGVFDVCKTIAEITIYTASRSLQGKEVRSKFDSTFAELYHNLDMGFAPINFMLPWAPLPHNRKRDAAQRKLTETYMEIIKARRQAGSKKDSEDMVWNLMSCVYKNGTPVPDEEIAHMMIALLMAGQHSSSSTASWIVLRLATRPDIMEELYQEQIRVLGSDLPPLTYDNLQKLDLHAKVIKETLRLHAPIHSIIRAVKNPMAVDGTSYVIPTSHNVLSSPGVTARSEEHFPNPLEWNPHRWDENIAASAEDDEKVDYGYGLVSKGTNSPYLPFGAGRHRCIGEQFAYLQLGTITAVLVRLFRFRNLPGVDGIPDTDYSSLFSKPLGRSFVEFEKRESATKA
Protocol: as §2, §3

[7] = Saccharomyces cerevisiae, 48 h, pH 6.8, Table 2, strain T289A, SD pH 6.8, 48 h, 30 °C, read-out: MIC80
[8] = Saccharomyces cerevisiae, 48 h, pH 6.8, Table 2, strain I301T, SD pH 6.8, 48 h, 30 °C, read-out: MIC80

Sequence of AfCYP51A-6×His (Q4WNT5 whole entry): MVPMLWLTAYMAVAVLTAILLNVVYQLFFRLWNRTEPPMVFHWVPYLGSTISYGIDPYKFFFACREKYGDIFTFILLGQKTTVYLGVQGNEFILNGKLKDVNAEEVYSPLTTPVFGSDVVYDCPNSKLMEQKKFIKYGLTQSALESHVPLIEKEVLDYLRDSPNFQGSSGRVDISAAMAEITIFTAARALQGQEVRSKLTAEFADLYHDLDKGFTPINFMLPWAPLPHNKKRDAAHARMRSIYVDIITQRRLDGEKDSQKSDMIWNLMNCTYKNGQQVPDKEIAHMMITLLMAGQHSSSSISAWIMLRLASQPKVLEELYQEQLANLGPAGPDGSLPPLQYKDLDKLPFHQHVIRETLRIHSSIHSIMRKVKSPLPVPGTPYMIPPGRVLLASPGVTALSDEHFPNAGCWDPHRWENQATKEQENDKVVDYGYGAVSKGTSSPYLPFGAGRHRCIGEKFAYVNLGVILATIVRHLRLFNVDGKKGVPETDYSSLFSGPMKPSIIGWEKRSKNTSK

| SMILES | MIC80 [1] [µM] | MIC80 [2] [µM] | greater susceptibility (MIC80) of strain T289A compared with strain ARE [4] [fold] | MIC80 [4, 7] [µM] | MIC80 [5, 8] [µM] | MIC80 [6] [µM] | λpeak (type II difference spectrum) (AfCYP51A-6×His) [nm] | λtrough (type II difference spectrum) (AfCYP51A-6×His) [nm] | ΔAmax (type II binding) (AfCYP51A-6×His) | Hill Number (AfCYP51A-6×His; type II binding) | Kd (AfCYP51A-6×His; type II binding) | λpeak (type II difference spectrum) (AfCYP51B-6×His) [nm] | λtrough (type II difference spectrum) (AfCYP51B-6×His) [nm] | ΔAmax (type II binding) (AfCYP51B-6×His) | Hill Number (AfCYP51B-6×His) | Kd (AfCYP51B-6×His) [nM] | other results |
| --- | --- | --- | --- | --- | --- | --- | --- | --- | --- | --- | --- | --- | --- | --- | --- | --- | --- |
| C[C@@H](c1ncncc1F)[C@](O)(Cn1cncn1)c1ccc(F)cc1F [VCZ, voriconazole] | 0.06 | 0.11 ± 0.02 | 2.5 | < 0.12 | < 0.12 | 0.07 ± 0.01 | 422 | 392 | 0.05 | 1.10 | 1500 nM and 1520 nM | 427 | 410 | 0.03 | 1.12 | 800 ± 310 | MIC80 ([3]; Saccharomyces cerevisiae, Table 2, strain ARE, SD pH 6.8, 48 h, 30 °C, ± SD, read-out: MIC80): 0.27 ± 0.03 µM; MIC80 of strain ARE relative to strain ADΔΔ ([3]; higher): 4- to 5 fold; MIC80 ([4]; Table 2, strain T289A, SD pH 6.8, 48 h, 30 °C): 0.11 ± 0.00 µM; MIC80 ([5]; Table 2, strain I301T, SD pH 6.8, 48 h, 30 °C): 0.11 ± 0.00 µM |
| OC(Cn1cncn1)(Cn1cncn1)c1ccc(F)cc1F [FLC, fluconazole] | 3.3 ± 0.2 | 6.5 ± 0.7 | 11 | 21.3 ± 2.7 | 77.2 ± 5.9 | 2.9 ± 0.4 | 422 | 383 | 0.10 | 0.72 | 3230 ± 1130 nM | 425 | 407 | 0.09 | 1.75 | 1430 ± 70 | MIC80 ([3]; Saccharomyces cerevisiae, 48 h, pH 6.8): 227 ± 19 µM; MIC80 ([3]; Saccharomyces cerevisiae, Table 3, strain ARE, ± SD, read-out: MIC80): 151 ± 66 µM; MIC80 ([3]; Table 2, strain ARE, SD pH 6.8, 48 h, 30 °C, ± SD): 227 ± 18 µM and 227 ± 18.5 µM; MIC80 ([4]; Saccharomyces cerevisiae, Table 3, strain ARE T289A, read-out: MIC80): 12 ± 2 µM; MIC80 of strain T289A relative to strain ADΔΔ ([4]; higher): 7 fold; greater susceptibility (MIC80) of strain I301T compared with strain ARE [5]: 3 fold; MIC80 ([5]; Saccharomyces cerevisiae, Table 3, strain ARE I301T, read-out: MIC80): 65 ± 14 µM; Kd of AfCYP51A relative to AfCYP51B (AfCYP51A-6×His; type II binding): 2.26 fold |

Reference: paper PMC11678245, “The Molecular Basis of the Intrinsic and Acquired Resistance to Azole Antifungals in Aspergillus fumigatus” (Journal of Fungi, 2024)
